# Tested on: D 245 glioblastoma multiform human xenograph
# Test: In vivo studies of human xenographs implanted in athymic mice
# Conditions: Free Dox control
# Description: Athymic mice were chosen for these studies because normal mice are capable of immunologically rejecting implanted foreign xenographs, specifically human tumors. The animals (both control and treated) were monitored for tumor regression and survival.
# The procedure consisted of inoculation of a tumor brei into a subcutaneous site in athymic mice. The subcutaneous tumors were grown to approximately 200 cubic millimeters in size (6-8 mm in diameter). Subsequently, either the free drug or the drug loaded nanoparticles were injected at the tumor site or i.p. (intra peritoneal). […] The animals were treated in groups of 8 to 10 individuals.
# Dispersions were 100 mg nanospheres/5 mL saline (1×0.5% Dox-nano), 200 mg nanospheres/5 mL saline (2×0.5% Dox-nano) or 400 mg nanospheres/5 mL saline (4×0.5% Dox-nano).
# Injections were each 0.25 mL/20 gram mouse (all single injections).
# T-C is defined as: Average of (days lived by drug-treated animal minus days lived by control animals); i.e., increased life span in days.
# The Control was provided as follows: Varied—Untreated mice injected with saline; Untreated mice; Mice treated with drug-free nanospheres (100 mgs/5 mL saline).
# P value: Test run for significance. P values are calculated using non-parametric statistical method by Hollander and Wolfe.
# Regressions: Indicate that tumors drop below previous measurement and stay below for 2 consecutive measurements.
substance,measurement,setting,value
"(7S,9S)-7-[(2R,4S,5S,6S)-4-amino-5-hydroxy-6-methyloxan-2-yl]oxy-6,9,11-trihydroxy-9-(2-hydroxyethyl)-4-methoxy-8,10-dihydro-7H-tetracene-5,12-dione [Free Dox]",Regressions,"5 mg/kg, animals with regression/group",0/10
same,Toxic deaths,"5 mg/kg, deaths/group",0/10
same,T-C (increased life span in days),"drug dose 5 mg/kg, injected at the tumor site or i.p.",1.53 days

# From US10285943B2, “Aptamer bioconjugate drug delivery device” (GreenMark Biomedical Inc., priority 2010, dated 2019)
